The values that follow are results of earlier work, collected in patent US20090286795A1, “USE OF VASCULAR ENDOTHELIAL GROWTH FACTOR RECEPTOR INHIBITORS FOR THE TREATMENT OF CANCER” (priority 2006, published 2009).

For the data set the following is noted: studies in humans.

Consider `Clc1ccc(Nc2nnc(Cc3ccncc3)c3ccccc23)cc1` [PTK787, 1-(4-chloroanilino)-4-(4-pyridylmethyl)phthalazine], for which the tolerability in humans entry was “well tolerated” and the tumor vascular permeability entry is “reduce tumor vascular permeability”.
